Assay results taken from PubChem BioAssay AID1645848.
Values after ≈ are worked out from the molar mass of the structure shown.

Settings: buffer; pH 7.4; 6.0 h; 150.0 µM

Row | SMILES | solubility kinetic
1 | CCS(=O)(=O)c1ncc(N(Cc2ccc(F)cc2)Cc2ccco2)c(C(=O)Nc2cc(C)ccc2C)n1 | < 1 µg/mL
2 | Fc1ccccc1-c1nc(NCc2ccc(-c3cccnc3)cc2)c2ccccc2n1 | < 1 µg/mL
3 | CCCCOc1ccc(CC(=O)NO)cc1 | 13.6 µg/mL (≈ 60.9 µM)
4 | CCN1CCN(c2ccc(Nc3ccc(-c4ccc(C(N)=O)cc4)n4ncnc34)cc2)CC1 | > 65 µg/mL
5 | c1ccc(-c2cn[nH]c2)cc1 | > 14 µg/mL
6 | COc1ccc(-n2nc(C3CCN(C(=O)c4ccccc4)CC3)[nH]c2=O)cc1 | > 56 µg/mL
7 | CCOC(=O)c1nn(-c2ccccc2)c(=O)c2c(N)scc12 | 4.02 µg/mL (≈ 12.7 µM)
8 | CCOc1ccc(-c2cn3c(n2)sc2cc(C(=O)NCCCN(CC)CC)ccc23)cc1 | > 67 µg/mL
9 | O=C(c1cccs1)c1nonc1C(=O)c1cccs1 | < 1 µg/mL
10 | CC(=O)N1CCc2cc(-c3nc(NC(=O)Cc4ccc5c(c4)OCO5)sc3C)ccc21 | < 1 µg/mL
11 | Nc1scc2c(C(=O)O)nn(-c3ccccc3)c(=O)c12 | 23.9 µg/mL (≈ 83.1 µM)
12 | Cc1c(-c2cccc3c(CCCOc4cccc5ccccc45)c(C(=O)O)n(Cc4cccnc4)c23)c(COc2ccc(N3CCN([S+](=O)([O-])N(C)C)CC3)cc2)nn1C | < 1 µg/mL
13 | COc1ccc(C2c3c(ncn(CCN4CCOCC4)c3=N)Oc3ccc4ccccc4c32)cc1OC (configuration not stated) | 4.21 µg/mL (≈ 8.44 µM)
14 | COc1ccc(NC(C)=O)cc1S(=O)(=O)Nc1ccc(Br)cc1 | 32.7 µg/mL (≈ 81.9 µM)
15 | CCOC(=O)c1c(NC(=O)CN2CCCCC2)sc2c1CCN(C(=O)OCC)C2 | 27.6 µg/mL (≈ 65.2 µM)
16 | COc1ccc(-c2cc3nccn3c(Nc3ncccc3C(N)=O)n2)cc1OC | 24.2 µg/mL (≈ 62.1 µM)
17 | COc1cccc(CNc2ccc(S(=O)(=O)Nc3nc4ccccc4o3)cc2)c1O | > 63 µg/mL
18 | COc1ccc(-n2nc(C)c([C@@H]3C=C[C@@H](NCc4ccc(N(C)C)cc4)C3)c2C)cc1 | 50.3 µg/mL (≈ 121 µM)
19 | O=C(NC1CC1)c1nc(-c2cccnc2)c2cnccn12 | 31.6 µg/mL (≈ 113 µM)
20 | CCc1c(C)nc2c(-c3cnn(-c4cc(CO)ccn4)c3)c[nH]n2c1=O | 10.1 µg/mL (≈ 28.7 µM)
21 | Cn1c(=O)c2[nH]c(=O)[nH]c2n(C)c1=O | > 29 µg/mL
22 | CC(=O)NCc1ccc(-c2csc(Nc3cccc(C)c3)n2)o1 | 29.8 µg/mL (≈ 91.1 µM)
23 | Cc1cccc2nc(NC3=NC(c4[nH]ncc4Cl)C4=C(CCCC4=O)N3)oc12 (configuration not stated) | 1.82 µg/mL (≈ 4.6 µM)
24 | Cc1ccc(S(=O)(=O)Nc2cncc(C(=O)Nc3nc(-c4ccccc4)cs3)c2)cc1 | < 1 µg/mL

Row | SMILES | solubility kinetic
25 | COc1ccc(NC(=O)c2cccnc2)cc1S(=O)(=O)Nc1ccc(Br)cc1 | 33.5 µg/mL (≈ 72.5 µM)
26 | COc1cc(Nc2nc(-c3ccncc3)nc3ccccc23)ccc1F | < 1 µg/mL
27 | FC(F)(F)c1cccc(N2CCN(C(=S)Nc3cc4ccccc4cn3)CC2)c1 | < 1 µg/mL
28 | O=C(NCCCc1ccccc1)C1CCN(c2nc(-c3ccc(Br)cc3)cs2)CC1 | 3.28 µg/mL (≈ 6.77 µM)
29 | Nc1nc2c(s1)C(c1ccc(F)cc1F)CC(=O)N2 (configuration not stated) | 23.2 µg/mL (≈ 82.4 µM)
30 | Cc1cc(-c2nnc3n2CCCCC3)c(C)n1-c1cccc(C(F)(F)F)c1 | 32.8 µg/mL (≈ 87.5 µM)
31 | CCOC(=O)c1nn(-c2ccc(OC)cc2)c(=O)c2c(N)scc12 | 5.68 µg/mL (≈ 16.5 µM)
32 | O=C(Nc1ccccc1)C1CCN(c2ncc(-c3ccc4c(c3)OCCCO4)s2)CC1 | < 1 µg/mL
33 | Cc1ccc(-c2cc(C(=O)Nc3ccc(-c4noc(=O)[nH]4)cc3)c3ccccc3n2)cc1C | 1.39 µg/mL (≈ 3.19 µM)
34 | O=C1Nc2ccccc2/C1=C/c1ccc[nH]1 | 1.91 µg/mL (≈ 9.09 µM)
35 | COC(=O)CNC(=O)c1nc(-c2ccccc2OC)c2ccccn12 | > 60 µg/mL
36 | O=C(Nc1ncc(Cc2ccc(C(F)(F)F)cc2)s1)c1ccc(-c2ccccc2)o1 | < 1 µg/mL
37 | N=c1c2c(ncn1-c1ccccc1)Oc1ccc3ccccc3c1C2c1ccc2c(c1)CCO2 (configuration not stated) | 2 µg/mL (≈ 4.5 µM)
38 | C1CCc2nc3c(nc2C1)CCCC3 | > 28 µg/mL
39 | CCCCOc1ccc(C2c3c(oc4ccc(C)cc4c3=O)C(=O)N2CCCN(C)C)cc1OCC (configuration not stated) | 58.5 µg/mL (≈ 119 µM)
40 | CCOc1ccc(CCNC(=O)c2cc3sccc3n2Cc2ccc(F)cc2F)cc1OCC | < 1 µg/mL
41 | CCNC(=O)N1CCCN(c2ccc(C(=O)NCCc3ccc(Cl)cc3Cl)cc2NC(=O)c2cccc(Cl)c2)CC1 | < 1 µg/mL
42 | CNc1oc(-c2ccc(-c3ccccc3)cc2)nc1C#N | < 1 µg/mL
43 | Cc1cccc(-c2[nH]c(C(C)(C)C)nc2-c2ccc3nccnc3c2)n1 | > 51 µg/mL
44 | O=C(c1nc(-c2ccc(Cl)cc2Cl)c2cnccn12)N1CCOCC1 | 20.2 µg/mL (≈ 53.6 µM)
45 | Cc1cccc(-n2ccc(=O)c(C(=O)Nc3ccc(S(=O)(=O)Nc4nccs4)cc3)n2)c1 | < 1 µg/mL
46 | Cc1cn2c(-c3cn[nH]c3)cnc2c(Nc2ccc(C(=O)N3CCNCC3)cc2F)n1 | 13.4 µg/mL (≈ 31.8 µM)
47 | O=C(Nc1nc(-c2ccccc2)cs1)c1ccncc1NS(=O)(=O)c1cccs1 | < 1 µg/mL
48 | Fc1ccc(Nc2cc(-c3ccccc3)nc(-c3ccncc3)n2)cc1F | < 1 µg/mL

Row | SMILES | solubility kinetic
49 | CCCN1CNc2c(c(=O)[nH]c(=S)n2CCc2cccc(Cl)c2Cl)C1 | 13.4 µg/mL (≈ 33.6 µM)
50 | CCCCCNc1oc(-c2cccc3ccccc23)nc1C#N | < 1 µg/mL
51 | Cc1cc(NS(=O)(=O)c2ccc(N(C)C(=O)Cc3ccc(Cl)c(Cl)c3)cc2)no1 | > 67 µg/mL
52 | CN1CCN(c2ccc(-c3cccc(CN4CCOCC4)c3)cc2NC(=O)c2c[nH]c(=O)cc2C(F)(F)F)CC1 | 69.1 µg/mL (≈ 124 µM)
53 | COc1cccc(-c2csc(N3CCC(C(N)=O)CC3)n2)c1 | > 47 µg/mL
54 | NC(=O)C1CCN(c2nc(-c3cccnc3)cs2)CC1 | > 43 µg/mL
55 | Fc1cc(Nc2nc(-c3ccncc3)nc3ccccc23)ccc1-c1cc(F)c(F)c(F)c1 | < 1 µg/mL
56 | CCN1CCCC1CNC(=O)c1cc(S(=O)(=O)CC)c(N)cc1OC (configuration not stated) | 36.2 µg/mL (≈ 98.1 µM)
57 | Nc1nc2c(s1)C(c1cccc(F)c1F)CC(=O)N2 (configuration not stated) | 8.33 µg/mL (≈ 29.6 µM)
58 | Cc1ccc(C(=O)Nc2ccc(CN3CCN(C)CC3)c(C(F)(F)F)c2)cc1C#Cc1cnc2cccnn12 | < 1 µg/mL
59 | CCNC(=O)Nc1ncc(-c2cc(-c3c(C)cc(OC)cc3C)nc(-c3cnccn3)n2)s1 | < 1 µg/mL
60 | C[C@@H]1Cc2c([nH]c3cc(Cl)c(F)cc23)[C@]2(N1)C(=O)Nc1ccc(Cl)cc12 | 13.3 µg/mL (≈ 34.1 µM)
61 | CCN(CC)[S+](=O)([O-])c1cc(NC(=O)c2[nH]c(C)c(C(C)=O)c2C)ccc1OC | 18.1 µg/mL (≈ 43 µM)
62 | COc1ccccc1CNS(=O)(=O)c1ccc(-c2cnc(C3CC3)o2)cc1 | 2.61 µg/mL (≈ 6.79 µM)
63 | COc1ccccc1Nc1ccnc(N2CCN(C(=O)c3ccc(F)cc3)CC2)n1 | 10.8 µg/mL (≈ 26.5 µM)
64 | O=C(Nc1ccc(Br)cc1)c1ccc(F)c(S(=O)(=O)NC2CCCCCC2)c1 | < 1 µg/mL
65 | O=C(c1cnc(N2CCCCC2)c2ccccc12)N1CCN(c2ccccn2)CC1 | > 59 µg/mL
66 | O=C1CCCC2=C1C(c1ccccc1Br)N=C(Nc1nc3ccccc3o1)N2 (configuration not stated) | < 1 µg/mL
67 | N#CC1CCN(c2nc(-c3ccc(Br)cc3)cs2)CC1 | 1.46 µg/mL (≈ 4.19 µM)
68 | N#Cc1cnccc1-c1nc(Nc2ccc(F)c(F)c2)c2ccccc2n1 | < 1 µg/mL
69 | COc1cccc(CNCc2cccn2-c2nnc(N3CCN(c4ccccc4)CC3)s2)c1 | 5.15 µg/mL (≈ 11.2 µM)
70 | COc1cc(Nc2nc(-c3ccncc3)nc3ccccc23)ccc1Cl | < 1 µg/mL
71 | CCC(CC)c1cc([C@H]2CN3CC[C@H]2C[C@@H]3CNS(=O)(=O)c2cccs2)nc(-c2ccncc2)n1 | 52.2 µg/mL (≈ 102 µM)
72 | COc1cccc2c1CCCC2CCCN1CCN(C2CCCCC2)CC1 (configuration not stated) | > 55 µg/mL
